Assay results reported in ChEMBL document CHEMBL1201862, “PubChem BioAssay data set” (2004).
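Assay format: 96-well plates, 48-hour exposure. GI50 is the concentration that inhibits growth by half.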 Calls of active or inactive are those of the source. No stated cut-off is given here; in the data, active = GI50 up to about 1.1 µM and inactive = higher.

Columns and labels:
Experiment in all cases: NCI-60 cell line screen, 48 h
SN12C = system: SN12C
OVCAR-8 = system: OVCAR-8
HT-29 = system: HT-29
LOX IMVI = system: LOX IMVI
CAKI-1 = system: CAKI-1
SK-MEL-5 = system: SK-MEL-5
HCT-116 = system: HCT-116
SF-539 = system: SF-539
SNB-19 = system: SNB-19
OVCAR-3 = system: OVCAR-3
DU-145 = system: DU-145
EKVX = system: EKVX
SNB-75 = system: SNB-75
SK-MEL-2 = system: SK-MEL-2
RPMI-8226 = system: RPMI-8226
NCI-H23 = system: NCI-H23
MOLT-4 = system: MOLT-4
T47D = system: T47D
Hs-578T = system: Hs-578T
IGROV-1 = system: IGROV-1
UO-31 = system: UO-31
NCI-H226 = system: NCI-H226
A549 = system: A549
ACHN = system: ACHN
RXF 393 = system: RXF 393
BT-549 = system: BT-549
SK-MEL-28 = system: SK-MEL-28
COLO 205 = system: COLO 205
SW-620 = system: SW-620
CCRF-CEM = system: CCRF-CEM
MCF7 = system: MCF7
PC-3 = system: PC-3
M14 = system: M14
HOP-92 = system: HOP-92
SF-295 = system: SF-295
HCC 2998 = system: HCC 2998
MDA-MB-435 = system: MDA-MB-435
TK-10 = system: TK-10
KM12 = system: KM12
HOP-62 = system: HOP-62
UACC-257 = system: UACC-257
MDA-N = system: MDA-N
OVCAR-5 = system: OVCAR-5
NCI-H460 = system: NCI-H460
UACC-62 = system: UACC-62
SF-268 = system: SF-268
U-251 = system: U-251
NCI/ADR-RES = system: NCI/ADR-RES
SK-OV-3 = system: SK-OV-3
K562 = system: K562
OVCAR-4 = system: OVCAR-4
MDA-MB-231 = system: MDA-MB-231
HL-60 = system: HL-60
786-0 = system: 786-0
SR = system: SR
Malme-3M = system: Malme-3M
A498 = system: A498
NCI-H522 = system: NCI-H522
HCT-15 = system: HCT-15

For O=[N+]([O-])C(=C/c1ccccc1)/C(=C\c1ccccc1)[N+](=O)[O-], the GI50 (SN12C) was 23.4 µM (inactive), the GI50 (OVCAR-8) was 20 µM (inactive) and the GI50 (HT-29) was 17.6 µM (inactive). The GI50 (LOX IMVI) was 14.7 µM (inactive), the GI50 (CAKI-1) was 15.7 µM (inactive) and the GI50 (SK-MEL-5) was 15.9 µM (inactive). For the same molecule, the GI50 (HCT-116) was 17.8 µM (inactive), the GI50 (SF-539) was 1.6 µM (inactive) and the GI50 (SNB-19) was 18.2 µM (inactive). The GI50 (OVCAR-3) was 19.5 µM (inactive), the GI50 (DU-145) was 16.1 µM (inactive) and the GI50 (EKVX) was 17.3 µM (inactive). The GI50 (SNB-75) was 18.4 µM (inactive), the GI50 (SK-MEL-2) was 20.1 µM (inactive) and the GI50 (RPMI-8226) was 10.3 µM (inactive). For the same molecule, the GI50 (NCI-H23) was 15.2 µM (inactive), the GI50 (MOLT-4) was 3.2 µM (inactive) and the GI50 (T47D) was 23.8 µM (inactive). For the same molecule, the GI50 (Hs-578T) was 56.2 µM (inactive), the GI50 (IGROV-1) was 16.8 µM (inactive) and the GI50 (UO-31) was 17.5 µM (inactive). For the same molecule, the GI50 (NCI-H226) was 19.1 µM (inactive), the GI50 (A549) was 28.6 µM (inactive) and the GI50 (ACHN) was 16.9 µM (inactive). The GI50 (RXF 393) was 10.2 µM (inactive), the GI50 (BT-549) was 17.6 µM (inactive) and the GI50 (SK-MEL-28) was 15.9 µM (inactive). For the same molecule, the GI50 (COLO 205) was 15.2 µM (inactive), the GI50 (SW-620) was 13.5 µM (inactive) and the GI50 (CCRF-CEM) was 1.71 µM (inactive). The GI50 (MCF7) was 14.9 µM (inactive), the GI50 (PC-3) was 19.3 µM (inactive) and the GI50 (M14) was 19.1 µM (inactive). For the same molecule, the GI50 (HOP-92) was 21.3 µM (inactive), the GI50 (SF-295) was 18.7 µM (inactive) and the GI50 (HCC 2998) was 21.6 µM (inactive). The GI50 (MDA-MB-435) was 16.5 µM (inactive), the GI50 (TK-10) was 16.1 µM (inactive) and the GI50 (KM12) was 15.4 µM (inactive). The GI50 (HOP-62) was 19.1 µM (inactive), the GI50 (UACC-257) was 17 µM (inactive) and the GI50 (MDA-N) was 17.1 µM (inactive). For the same molecule, the GI50 (OVCAR-5) was 22 µM (inactive), the GI50 (NCI-H460) was 14.8 µM (inactive) and the GI50 (UACC-62) was 16.6 µM (inactive). The GI50 (SF-268) was 26.7 µM (inactive), the GI50 (U-251) was 15.6 µM (inactive) and the GI50 (NCI/ADR-RES) was 18.7 µM (inactive). For the same molecule, the GI50 (SK-OV-3) was 20 µM (inactive), the GI50 (K562) was 7.11 µM (inactive) and the GI50 (OVCAR-4) was 21.3 µM (inactive). The GI50 (MDA-MB-231) was 13.2 µM (inactive).

In the case of C[C@]12CC[C@H](O)CC1=CC[C@@H]1C2CC[C@]2(C)c3nn(-c4ccc(F)cc4)nc3CC12 (some centres not stated), the GI50 (SN12C) is reported as 71 µM (inactive), the GI50 (OVCAR-8) is reported as 85.7 µM (inactive) and the GI50 (HT-29) is reported as 22.4 µM (inactive). For the same molecule, the GI50 (CAKI-1) was > 100 µM (inactive), the GI50 (SK-MEL-5) was 52.8 µM (inactive) and the GI50 (HCT-116) was 67.3 µM (inactive). The GI50 (SF-539) was 18.2 µM (inactive), the GI50 (SNB-19) was 73.3 µM (inactive) and the GI50 (OVCAR-3) was > 100 µM (inactive). The GI50 (DU-145) was 88.3 µM (inactive), the GI50 (EKVX) was > 100 µM (inactive) and the GI50 (SNB-75) was 28.6 µM (inactive). For the same molecule, the GI50 (NCI-H23) was 63.4 µM (inactive), the GI50 (MOLT-4) was 96.4 µM (inactive) and the GI50 (T47D) was 24.4 µM (inactive). For the same molecule, the GI50 (Hs-578T) was 39.3 µM (inactive), the GI50 (IGROV-1) was > 100 µM (inactive) and the GI50 (UO-31) was 81.1 µM (inactive). The GI50 (NCI-H226) was 44.2 µM (inactive), the GI50 (A549) was 79.4 µM (inactive) and the GI50 (HL-60) was 17.5 µM (inactive). For the same molecule, the GI50 (ACHN) was 33.1 µM (inactive), the GI50 (RXF 393) was 61.5 µM (inactive) and the GI50 (BT-549) was 63.4 µM (inactive). The GI50 (SK-MEL-28) was > 100 µM (inactive), the GI50 (COLO 205) was 46.5 µM (inactive) and the GI50 (SW-620) was > 100 µM (inactive). For the same molecule, the GI50 (CCRF-CEM) was 58.1 µM (inactive), the GI50 (MCF7) was > 100 µM (inactive) and the GI50 (PC-3) was 52.2 µM (inactive). For the same molecule, the GI50 (786-0) was 45.3 µM (inactive), the GI50 (M14) was 32.6 µM (inactive) and the GI50 (HOP-92) was > 100 µM (inactive). The GI50 (SF-295) was 34 µM (inactive), the GI50 (HCC 2998) was 24 µM (inactive) and the GI50 (MDA-MB-435) was 87.3 µM (inactive). The GI50 (TK-10) was > 100 µM (inactive), the GI50 (KM12) was 24.3 µM (inactive) and the GI50 (HOP-62) was 80.7 µM (inactive). The GI50 (UACC-257) was 46.8 µM (inactive), the GI50 (MDA-N) was 81.8 µM (inactive) and the GI50 (OVCAR-5) was 67.1 µM (inactive). The GI50 (NCI-H460) was 23.4 µM (inactive), the GI50 (UACC-62) was 43.7 µM (inactive) and the GI50 (SF-268) was 73.8 µM (inactive). The GI50 (U-251) was 95.5 µM (inactive), the GI50 (SK-OV-3) was 39.4 µM (inactive) and the GI50 (K562) was 4.51 µM (inactive). For the same molecule, the GI50 (SR) was > 100 µM (inactive), the GI50 (Malme-3M) was 74 µM (inactive) and the GI50 (OVCAR-4) was 16.6 µM (inactive). The GI50 (MDA-MB-231) was > 100 µM (inactive), the GI50 (A498) was 60.1 µM (inactive) and the GI50 (NCI-H522) was 58.3 µM (inactive).

In the case of COc1ccc(C2Oc3ccc(Cl)cc3C=C2[N+](=O)[O-])cc1 (configuration not stated), the GI50 (SN12C) is reported as > 100 µM (inactive), the GI50 (OVCAR-8) is reported as > 100 µM (inactive) and the GI50 (HT-29) is reported as > 100 µM (inactive). The GI50 (LOX IMVI) was > 100 µM (inactive), the GI50 (CAKI-1) was > 100 µM (inactive) and the GI50 (SK-MEL-5) was > 100 µM (inactive). For the same molecule, the GI50 (HCT-116) was > 100 µM (inactive), the GI50 (SNB-19) was > 100 µM (inactive) and the GI50 (OVCAR-3) was > 100 µM (inactive). The GI50 (DU-145) was > 100 µM (inactive), the GI50 (EKVX) was > 100 µM (inactive) and the GI50 (RPMI-8226) was > 100 µM (inactive). The GI50 (NCI-H23) was > 100 µM (inactive), the GI50 (MOLT-4) was > 100 µM (inactive) and the GI50 (T47D) was > 100 µM (inactive). For the same molecule, the GI50 (Hs-578T) was > 100 µM (inactive), the GI50 (IGROV-1) was > 100 µM (inactive) and the GI50 (UO-31) was > 100 µM (inactive). For the same molecule, the GI50 (A549) was > 100 µM (inactive), the GI50 (HL-60) was > 100 µM (inactive) and the GI50 (ACHN) was > 100 µM (inactive). For the same molecule, the GI50 (RXF 393) was > 100 µM (inactive), the GI50 (BT-549) was > 100 µM (inactive) and the GI50 (SK-MEL-28) was > 100 µM (inactive). The GI50 (COLO 205) was > 100 µM (inactive), the GI50 (CCRF-CEM) was > 100 µM (inactive) and the GI50 (MCF7) was > 100 µM (inactive). For the same molecule, the GI50 (PC-3) was > 100 µM (inactive), the GI50 (786-0) was > 100 µM (inactive) and the GI50 (M14) was > 100 µM (inactive). The GI50 (SF-295) was > 100 µM (inactive), the GI50 (MDA-MB-435) was > 100 µM (inactive) and the GI50 (TK-10) was > 100 µM (inactive). For the same molecule, the GI50 (KM12) was > 100 µM (inactive), the GI50 (HOP-62) was > 100 µM (inactive) and the GI50 (UACC-257) was > 100 µM (inactive). The GI50 (MDA-N) was > 100 µM (inactive), the GI50 (OVCAR-5) was > 100 µM (inactive) and the GI50 (NCI-H460) was > 100 µM (inactive). For the same molecule, the GI50 (UACC-62) was > 100 µM (inactive), the GI50 (SF-268) was > 100 µM (inactive) and the GI50 (HCT-15) was greater than 100 µM. The GI50 (U-251) was > 100 µM (inactive), the GI50 (NCI/ADR-RES) was > 100 µM (inactive) and the GI50 (SK-OV-3) was > 100 µM (inactive). The GI50 (K562) was > 100 µM (inactive), the GI50 (SR) was > 100 µM (inactive) and the GI50 (Malme-3M) was > 100 µM (inactive). For the same molecule, the GI50 (OVCAR-4) was > 100 µM (inactive), the GI50 (MDA-MB-231) was > 100 µM (inactive) and the GI50 (NCI-H522) was > 100 µM (inactive).
